Experimental data taken from article PMC7662321, “Andrographolide and Its 14-Aryloxy Analogues Inhibit Zika and Dengue Virus Infection” (Molecules, 2020).

What was measured:
PGK1 = test: 2D-PAGE proteomic analysis of treated A549 cells, PGK1 spot; type: cell-based, human; details: A549, 25 µM, 24 h
Procedure: (§1) A549 cells were therefore treated with either vehicle (0.025% DMSO), or with 25 μM of andrographolide or ZAD-1, and at 24 h post-treatment, proteins were prepared and subjected to two-dimension polyacrylamide gel electrophoresis (2D-PAGE). The experiment was undertaken independently in triplicate and representative gels are shown Figure 5, with all replicates being shown in Supplementary Figure S12. […] All of these protein spots were cut from the gels and then subjected to in-gel tryptic digestion followed by mass spectrometry. MASCOT (Matrix Science Inc., Boston, MA, USA) search of the resultant masses identified 4 proteins (Table 3), namely heat shock protein 70 kDa 1A (HSPA1A), phosphoglycerate kinase 1 (PGK1), transketolase (TKT) and nuclear transport protein of GTP-binding nuclear protein Ran (Ran).
(§2) 2D-PAGE and mass spectroscopic identification of differentially expressed spots was undertaken essentially as previously described. […] Image data were analyzed using Image Master™ 2D Platinum software version 7.0 (GenBio, Geneva, Switzerland). Each spot was evaluated on intensity, volume and area. […] After tryptic in-gel digestion, peptide masses were determined by LC-MS/MS using SYNAPT high definition MS (HDMS) (Waters Corp., Milford, MA, USA).

[1] = MTT cytotoxicity assay in A549 cells; type: cell-based; details: human, A549 cells (human lung carcinoma), 24 h post-treatment
Procedure: Cytotoxicity of each compound towards cells for four selected cell lines in the range of 1 to 500 µM was evaluated using the MTT (3-(4,5-dimethylthiazol-2-yl)-2,5-diphenyltetrazolium bromide) assay at 24 h post-treatment, in parallel with control and vehicle-treated cells (0.1% dimethyl sulfoxide (DMSO)). The 50% cytotoxic concentration (CC50) values calculated from the dose-response curve (Supplementary Figures S2–S5) are shown in Table 1. Overall, a range of cytotoxicities were seen from the four compounds across the […]. The most cytotoxic combination was ZAD-1 and BHK-21 cells, while the least cytotoxic combination was andrographolide and BHK-21 cells (Table 1).
A549 cells were cultured in ninety-six-well tissue culture plates under standard conditions until the cells reached 90% confluence. The cell culture medium was removed and then cells were incubated with various concentrations of andrographolide (1–100 μM) diluted in complete medium with FBS prior to being cultured for 24 h under standard conditions before analysis using either the Vybrant MTT Cell proliferation assay kit (V13154, Invitrogen) or the alamarBlue (Thermo Fischer Scientific, Waltham, MA, USA) assay kit according to the manufacturers recommendations. Values were determined from 8 (MTT assay) or 3 (alamarBlue) independent replicates. Negative controls (only media and media with 0.1% DMSO) and positive controls (5% DMSO) were included. To determine cell number, cell cultures were trypsinized by the addition of 0.25% Trypsin/0.1% ethylelediaminetetraacetic acid (EDTA) for 3 min and then cell suspensions were diluted with 0.4% trypan blue solution. Cells were counted using a hemocytometer. Cell morphology was additionally observed under an inverted microscope after 24 h treatment with various concentrations of each compound.
Figu re S4. Cytotoxicity of ZAD -1 (A), ZA D-2 (B), ZA D-3 (C), and andro grapholide (D) to A549 (human lung carcinoma) cells. A549 cells were incubated with various concentrations of each compound for 24 hrs followed by MTT cell viability assay. The experiment was undertaken independently in 4 replicates.
DMSO at the same concentrations was used as a control. 10% ethanol, PBS, and milli- Q water were used as a positive control of cell death. The bars show mean ± SD. […]

Ran = test: 2D-PAGE proteomic analysis of treated A549 cells, Ran spot; type: cell-based, human; details: A549, 25 µM, 24 h
Procedure: as §1, §2

TKT = test: 2D-PAGE proteomic analysis of treated A549 cells, TKT spot; type: cell-based, human; details: A549, 25 µM, 24 h
Procedure: as §1, §2

ZIKV = ZIKV viral production in A549 cells by standard plaque assay; type: cell-based, Zika virus; details: for ZIKV viral production, concentration dependence: A549, MOI 5, 1 to 100 µM; for Selective Index (SI): ZIKV, CC50 and EC50 in A549 cells; for EC50: Zika virus, A549 cells, MOI 5, 24 h treatment post-infection, plaque assay, read-out: EC50 against ZIKV infection
Procedure: To confirm the effects of andrographolide and the andrographolide analogues on ZIKV infection, A549 cells were infected with ZIKV at MOI of 5 for 2 h, and subsequently treated with the compounds at concentrations of 10 and 25 μM or with vehicle for 24 h. The cells were harvested for determination of the percentage of infection by flow cytometry, while the supernatants were collected for determination of viral titer by standard plaque assay.
Thus, the EC50 values of ZAD-1 and andrographolide were determined against ZIKV and DENV 2. For ZIKV, A549 cells were infected with ZIKV at MOI 5 and after 2 h of infection, the cells were incubated with ZAD-1 or andrographolide at a range of concentrations (1 to 100 µM) for 24 h, after which the supernatants were collected for determination of EC50 values by standard plaque assay. Both ZAD-1 and andrographolide reduced viral production in a dose-dependent manner (Figure 4A). […] For DENV 2, HEK293T/17 cells were infected with DENV 2 at MOI 5 for 2 h and followed by incubation with ZAD-1 or andrographolide at a range of concentrations (1 to 100 µM) for 24 h. […] The EC50 value for andrographolide in DENV infection is consistent with our previous study undertaken in HepG2 and HeLa cells with the same virus.
DENV 2 (strain 16681) and ZIKV (strain SV0010/15) virus stocks were propagated in C6/36 cells previously described, and virus titers were determined by standard plaque assay as described previously using Vero cells for ZIKV and LLC-MK2 cells for DENV.
HEK293T/17 or A549 cells were cultured in six-well plates under standard conditions until the cells reached 80% confluence. HEK293T/17 cells were infected with DENV 2, while A549 cells were infected with ZIKV Thai strain at MOI 5 for 2 h at 37 °C and 5% CO2 in culture medium without FBS. Mock infection was undertaken in parallel. After the infection period, the medium was removed and replaced with complete medium (including FBS) containing 0.1% DMSO (no treatment control) or the appropriate concentration of each compound and cells were again incubated under standard conditions. At 24 h post-treatment, cells were harvested for determination of effects of compounds on percentage of infection and supernatant was collected for determination of viral productivity. All experiments were undertaken independently in triplicate with duplicate plaque assay.

C=C1CC[C@@H]2[C@](C)(CO)[C@H](O)CC[C@@]2(C)[C@@H]1C/C=C1/C(=O)OC[C@H]1O [Andrographolide]
Intensity Level, spot 3 PGK1 (PGK1): 1053.31
CC50 at 24 h [1]: 211 ± 32 µM
Intensity Level, spot 4 Ran (Ran): 698.483
Intensity Level, spot 2 TKT (TKT): 1452.51
ZIKV viral production, concentration dependence (ZIKV; 24 h): dose-dependent
Selective Index (SI) (ZIKV): 6.6
EC50 (ZIKV): 31.8 ± 3.5 µM

C=C1CC[C@@H]2[C@]3(C)COC(C)(C)O[C@@H]3CC[C@@]2(C)[C@@H]1C/C=C1/C(=O)OC[C@@H]1Oc1c(Cl)cc(Cl)c2ccc(C)nc12 [ZAD-1]
Intensity Level, spot 3 PGK1 (PGK1): 2509.31
CC50 at 24 h [1]: 273 ± 22 µM
Intensity Level, spot 4 Ran (Ran): 2096.79
Intensity Level, spot 2 TKT (TKT): 523.514
inhibitory effect on ZIKV infection, comparison among compounds (ZIKV; A549, MOI 5, 25 µM, 24 h): greatest inhibitory effect
ZIKV viral production, concentration dependence (ZIKV; 24 h): dose-dependent
Selective Index (SI) (ZIKV): 9.8
EC50 (ZIKV): 27.9 ± 1.7 µM
